# Experimental data published in publication PMC7070898 (Clinical and Translational Science, 2019).
# Assay: Safety and tolerability
# [1] = MAD 25 mg once daily 14 days, n = 9
# [2] = MAD 75 mg once daily 14 days, n = 9
# [3] = MAD 200 mg once daily 14 days, n = 9
structure (smiles),measurement,setting,value
C=CC(=O)N1CCC(CNc2ncnc(N)c2-c2ccc(Oc3ccccc3)cc2)CC1 [evobrutinib],TEAE: Abdominal discomfort,[1],"1 (11.1) (1) n (%), (number of events)"
same,TEAE: Abdominal pain,[1],"0 (0.0) n (%), (number of events)"
same,TEAE: Application site irritation,[1],"0 (0.0) n (%), (number of events)"
same,TEAE: Complex regional pain,[1],"1 (11.1) (1) n (%), (number of events)"
same,TEAE: Constipation,[1],"0 (0.0) n (%), (number of events)"
same,TEAE: Dry throat,[1],"0 (0.0) n (%), (number of events)"
same,TEAE: Excoriation,[1],"1 (11.1) (1) n (%), (number of events)"
same,TEAE: Fatigue,[1],"0 (0.0) n (%), (number of events)"
same,TEAE: Headache,[1],"1 (11.1) (1) n (%), (number of events)"
same,TEAE: Muscle spasms,[1],"0 (0.0) n (%), (number of events)"
same,TEAE: Muscle strain,[1],"1 (11.1) (1) n (%), (number of events)"
same,TEAE: Nausea,[1],"0 (0.0) n (%), (number of events)"
same,TEAE: Overall total,[1],"3 (33.3) (6) n (%), (number of events)"
same,TEAE: Rhinorrhea,[1],"1 (11.1) (1) n (%), (number of events)"
same,TEAE: Sneezing,[1],"0 (0.0) n (%), (number of events)"
same,TEAE: Toothache,[1],"0 (0.0) n (%), (number of events)"
same,TEAE: URTI,[1],"0 (0.0) n (%), (number of events)"
same,TEAE: Abdominal discomfort,[2],"0 (0.0) n (%), (number of events)"
same,TEAE: Abdominal pain,[2],"1 (11.1) (2) n (%), (number of events)"
same,TEAE: Application site irritation,[2],"1 (11.1) (1) n (%), (number of events)"
same,TEAE: Complex regional pain,[2],"0 (0.0) n (%), (number of events)"
same,TEAE: Constipation,[2],"1 (11.1) (1) n (%), (number of events)"
same,TEAE: Dry throat,[2],"1 (11.1) (1) n (%), (number of events)"
same,TEAE: Excoriation,[2],"0 (0.0) n (%), (number of events)"
same,TEAE: Fatigue,[2],"2 (22.2) (2) n (%), (number of events)"
same,TEAE: Headache,[2],"2 (22.2) (2) n (%), (number of events)"
same,TEAE: Muscle spasms,[2],"1 (11.1) (1) n (%), (number of events)"
same,TEAE: Muscle strain,[2],"0 (0.0) n (%), (number of events)"
same,TEAE: Nausea,[2],"1 (11.1) (2) n (%), (number of events)"
same,TEAE: Overall total,[2],"7 (77.8) (14) n (%), (number of events)"
same,TEAE: Rhinorrhea,[2],"0 (0.0) n (%), (number of events)"
same,TEAE: Sneezing,[2],"1 (11.1) (1) n (%), (number of events)"
same,TEAE: Toothache,[2],"0 (0.0) n (%), (number of events)"
same,TEAE: URTI,[2],"1 (11.1) (1) n (%), (number of events)"
same,TEAE: Abdominal discomfort,[3],"0 (0.0) n (%), (number of events)"
same,TEAE: Abdominal pain,[3],"0 (0.0) n (%), (number of events)"
same,TEAE: Application site irritation,[3],"1 (11.1) (1) n (%), (number of events)"
same,TEAE: Complex regional pain,[3],"0 (0.0) n (%), (number of events)"
same,TEAE: Constipation,[3],"0 (0.0) n (%), (number of events)"
same,TEAE: Dry throat,[3],"0 (0.0) n (%), (number of events)"
same,TEAE: Excoriation,[3],"0 (0.0) n (%), (number of events)"
same,TEAE: Fatigue,[3],"0 (0.0) n (%), (number of events)"
same,TEAE: Headache,[3],"0 (0.0) n (%), (number of events)"
same,TEAE: Muscle spasms,[3],"0 (0.0) n (%), (number of events)"
same,TEAE: Muscle strain,[3],"0 (0.0) n (%), (number of events)"
same,TEAE: Nausea,[3],"0 (0.0) n (%), (number of events)"
same,TEAE: Overall total,[3],"3 (33.3) (3) n (%), (number of events)"
same,TEAE: Rhinorrhea,[3],"0 (0.0) n (%), (number of events)"
same,TEAE: Sneezing,[3],"0 (0.0) n (%), (number of events)"
same,TEAE: Toothache,[3],"1 (11.1) (1) n (%), (number of events)"
same,TEAE: URTI,[3],"1 (11.1) (1) n (%), (number of events)"
same,TEAE: Abdominal discomfort,"MAD pooled active, n = 27","1 (3.7) (1) n (%), (number of events)"
same,TEAE: Abdominal pain,"MAD pooled active, n = 27","1 (3.7) (2) n (%), (number of events)"
same,TEAE: Application site irritation,"MAD pooled active, n = 27","2 (7.4) (2) n (%), (number of events)"
same,TEAE: Complex regional pain,"MAD pooled active, n = 27","1 (3.7) (1) n (%), (number of events)"
same,TEAE: Constipation,"MAD pooled active, n = 27","1 (3.7) (1) n (%), (number of events)"
same,TEAE: Dry throat,"MAD pooled active, n = 27","1 (3.7) (1) n (%), (number of events)"
same,TEAE: Excoriation,"MAD pooled active, n = 27","1 (3.7) (1) n (%), (number of events)"
same,TEAE: Fatigue,"MAD pooled active, n = 27","2 (7.4) (2) n (%), (number of events)"
same,TEAE: Headache,"MAD pooled active, n = 27","3 (11.1) (3) n (%), (number of events)"
same,TEAE: Muscle spasms,"MAD pooled active, n = 27","1 (3.7) (1) n (%), (number of events)"
same,TEAE: Muscle strain,"MAD pooled active, n = 27","1 (3.7) (1) n (%), (number of events)"
same,TEAE: Nausea,"MAD pooled active, n = 27","1 (3.7) (2) n (%), (number of events)"
same,TEAE: Overall total,"MAD pooled active, n = 27","13 (48.1) (23) n (%), (number of events)"
same,TEAE: Rhinorrhea,"MAD pooled active, n = 27","1 (3.7) (1) n (%), (number of events)"
same,TEAE: Sneezing,"MAD pooled active, n = 27","1 (3.7) (1) n (%), (number of events)"
same,TEAE: Toothache,"MAD pooled active, n = 27","1 (3.7) (1) n (%), (number of events)"
same,TEAE: URTI,"MAD pooled active, n = 27","2 (7.4) (2) n (%), (number of events)"
same,TEAE: Abdominal pain,"SAD 25 mg, n = 6","0 (0.0) n (%), (number of events)"
same,TEAE: Amylase increased,"SAD 25 mg, n = 6","0 (0.0) n (%), (number of events)"
same,TEAE: Application site pruritus (due to ECG stickers),"SAD 25 mg, n = 6","0 (0.0) n (%), (number of events)"
same,TEAE: Back pain,"SAD 25 mg, n = 6","0 (0.0) n (%), (number of events)"
same,TEAE: Contact dermatitis,"SAD 25 mg, n = 6","0 (0.0) n (%), (number of events)"
same,TEAE: Dizziness,"SAD 25 mg, n = 6","0 (0.0) n (%), (number of events)"
same,TEAE: Dry eye,"SAD 25 mg, n = 6","0 (0.0) n (%), (number of events)"
same,TEAE: Dry mouth,"SAD 25 mg, n = 6","0 (0.0) n (%), (number of events)"
same,TEAE: Dyspepsia,"SAD 25 mg, n = 6","0 (0.0) n (%), (number of events)"
same,TEAE: Excoriation,"SAD 25 mg, n = 6","0 (0.0) n (%), (number of events)"
same,TEAE: Headache,"SAD 25 mg, n = 6","0 (0.0) n (%), (number of events)"
same,TEAE: Lipase increased,"SAD 25 mg, n = 6","0 (0.0) n (%), (number of events)"
same,TEAE: Multiple injuries,"SAD 25 mg, n = 6","0 (0.0) n (%), (number of events)"
same,TEAE: Nasal congestion,"SAD 25 mg, n = 6","0 (0.0) n (%), (number of events)"
same,TEAE: Noncardiac chest pain,"SAD 25 mg, n = 6","0 (0.0) n (%), (number of events)"
same,TEAE: Odynophagia,"SAD 25 mg, n = 6","0 (0.0) n (%), (number of events)"
same,TEAE: Overall total,"SAD 25 mg, n = 6","0 (0.0) n (%), (number of events)"
same,TEAE: URTI,"SAD 25 mg, n = 6","0 (0.0) n (%), (number of events)"
same,TEAE: Abdominal pain,"SAD 50 mg, n = 6","0 (0.0) n (%), (number of events)"
same,TEAE: Amylase increased,"SAD 50 mg, n = 6","0 (0.0) n (%), (number of events)"
same,TEAE: Application site pruritus (due to ECG stickers),"SAD 50 mg, n = 6","0 (0.0) n (%), (number of events)"
same,TEAE: Back pain,"SAD 50 mg, n = 6","1 (16.7) (1) n (%), (number of events)"
same,TEAE: Contact dermatitis,"SAD 50 mg, n = 6","2 (33.3) (2) n (%), (number of events)"
same,TEAE: Dizziness,"SAD 50 mg, n = 6","0 (0.0) n (%), (number of events)"
same,TEAE: Dry eye,"SAD 50 mg, n = 6","0 (0.0) n (%), (number of events)"
same,TEAE: Dry mouth,"SAD 50 mg, n = 6","0 (0.0) n (%), (number of events)"
same,TEAE: Dyspepsia,"SAD 50 mg, n = 6","1 (16.7) (1) n (%), (number of events)"
same,TEAE: Excoriation,"SAD 50 mg, n = 6","0 (0.0) n (%), (number of events)"
same,TEAE: Headache,"SAD 50 mg, n = 6","1 (16.7) (2) n (%), (number of events)"
same,TEAE: Lipase increased,"SAD 50 mg, n = 6","0 (0.0) n (%), (number of events)"
same,TEAE: Multiple injuries,"SAD 50 mg, n = 6","0 (0.0) n (%), (number of events)"
same,TEAE: Nasal congestion,"SAD 50 mg, n = 6","0 (0.0) n (%), (number of events)"
same,TEAE: Noncardiac chest pain,"SAD 50 mg, n = 6","0 (0.0) n (%), (number of events)"
same,TEAE: Odynophagia,"SAD 50 mg, n = 6","0 (0.0) n (%), (number of events)"
same,TEAE: Overall total,"SAD 50 mg, n = 6","3 (50.0) (6) n (%), (number of events)"
same,TEAE: URTI,"SAD 50 mg, n = 6","0 (0.0) n (%), (number of events)"
